In US11578061B2, “Inhibitors of LRRK2 kinase” (Halia Therapeutics, Inc., priority 2021, dated 2023):
pIC50: −log10 of the molar value.

molecular target: recombinant human LRRK2 (catalytic domain only [amino acids 970-2527], GST-tagged) (Homo sapiens (Human), UniProt Q5S007); assay: LRRK2 Enzymatic Assay; format: biochemical; settings: LRRKtide substrate, [32P]-ATP
Procedure: LRRKtide substrate (peptide sequence RLGRDKYKTLRQIRQ, derived from human ezrin [amino acids 561-573], moesin [amino acids 539-553] and radixin [amino acids 558-570], obtained from SignalChem, catalogue #L10-58, reconstituted in 20 mM Tris-HCl at pH 7.5 to a final concentration of 1 mg/mL, assay concentration 20 μM) and recombinant human LRRK2 (catalytic domain only [amino acids 970-2527], GST-tagged, expressed in insect cells, obtained from ThermoFisher Scientific, catalogue #PV4874, 0.35 mg/mL, assay concentration 30 nM) were mixed in assay buffer (20 mM Hepes pH 7.5, 10 mM MgCl2, 1 mM EGTA, 0.02% Brij35, 0.02 mg/ml BSA, 0.1 mM Na3VO4, 2 mM DTT, 1% DMSO). Compounds of interest (in DMSO, serial 3-fold dilution from 10 μM to 0.5 nM) or control (1% DMSO) were dispensed into the kinase reaction mixture by Acoustic technology (Echo550; nanoliter range). After incubation at room temperature for 20 minutes, the kinase reaction was initiated by addition of [^32P]-ATP (Specific activity 10 μCi/μl) and the mixture was incubated at room temperature for 2 hours. The reaction was then stopped by spotting the reaction mixture on strips of phosphocellulose P81 paper. Following washing, the radioactivity of the P81 paper was measured and kinase activity data were expressed as the percent remaining kinase activity in test samples compared to vehicle (dimethyl sulfoxide) reactions. IC50 values and curve fits were obtained using Prism (GraphPad Software).

Chain of recombinant human LRRK2 (catalytic domain only [amino acids 970-2527], GST-tagged) (Q5S007 970-2527): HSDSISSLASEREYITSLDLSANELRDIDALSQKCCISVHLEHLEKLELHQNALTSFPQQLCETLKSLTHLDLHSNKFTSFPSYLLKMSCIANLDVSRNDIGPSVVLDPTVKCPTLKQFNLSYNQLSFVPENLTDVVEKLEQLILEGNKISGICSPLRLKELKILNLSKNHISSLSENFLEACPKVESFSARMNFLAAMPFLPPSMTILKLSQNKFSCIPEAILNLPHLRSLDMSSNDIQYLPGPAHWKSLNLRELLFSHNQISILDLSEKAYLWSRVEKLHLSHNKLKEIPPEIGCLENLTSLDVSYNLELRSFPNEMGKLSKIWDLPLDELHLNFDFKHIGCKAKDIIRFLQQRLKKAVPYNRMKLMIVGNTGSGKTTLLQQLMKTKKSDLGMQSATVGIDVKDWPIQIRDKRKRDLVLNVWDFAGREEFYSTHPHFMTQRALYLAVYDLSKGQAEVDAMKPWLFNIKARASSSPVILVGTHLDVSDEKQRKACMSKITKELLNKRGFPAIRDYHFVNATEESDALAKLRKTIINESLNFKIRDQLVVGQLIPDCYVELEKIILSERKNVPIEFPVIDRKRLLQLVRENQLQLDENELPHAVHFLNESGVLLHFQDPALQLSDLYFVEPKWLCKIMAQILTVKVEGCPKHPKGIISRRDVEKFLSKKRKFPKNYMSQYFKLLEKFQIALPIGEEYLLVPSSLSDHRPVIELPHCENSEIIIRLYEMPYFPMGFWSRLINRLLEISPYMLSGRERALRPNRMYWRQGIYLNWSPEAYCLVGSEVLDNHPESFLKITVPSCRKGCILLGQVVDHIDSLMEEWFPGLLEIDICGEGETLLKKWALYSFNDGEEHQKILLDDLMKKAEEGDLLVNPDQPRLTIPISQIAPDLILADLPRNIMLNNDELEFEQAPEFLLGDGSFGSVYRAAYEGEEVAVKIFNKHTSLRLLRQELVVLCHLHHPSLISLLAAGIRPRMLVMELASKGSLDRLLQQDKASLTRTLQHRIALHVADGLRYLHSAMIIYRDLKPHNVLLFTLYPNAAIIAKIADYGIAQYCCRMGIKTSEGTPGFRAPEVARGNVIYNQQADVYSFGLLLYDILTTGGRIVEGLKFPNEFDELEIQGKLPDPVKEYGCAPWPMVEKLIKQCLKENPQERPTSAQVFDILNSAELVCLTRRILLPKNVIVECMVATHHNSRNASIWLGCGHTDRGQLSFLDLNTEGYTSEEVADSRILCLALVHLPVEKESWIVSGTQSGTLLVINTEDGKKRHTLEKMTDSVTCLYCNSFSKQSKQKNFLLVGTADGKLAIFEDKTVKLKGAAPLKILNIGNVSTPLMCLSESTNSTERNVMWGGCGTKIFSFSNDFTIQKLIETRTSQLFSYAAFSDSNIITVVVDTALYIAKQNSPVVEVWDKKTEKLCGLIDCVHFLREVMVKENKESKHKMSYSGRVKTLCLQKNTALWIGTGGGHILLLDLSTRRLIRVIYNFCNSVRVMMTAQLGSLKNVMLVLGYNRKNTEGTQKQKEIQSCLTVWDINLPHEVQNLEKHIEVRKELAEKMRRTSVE

pIC50 | SMILES
6.40 to 6.70 | CC(=O)N[C@H]1CC[C@H](COc2nc(Nc3cnn(C(F)(F)F)c3)ncc2F)CC1 [Example 187, N-((1R,4R)-4-(((5-fluoro-2-((1-(trifluoromethyl)-1H-pyrazol-4-yl)amino)pyrimidin-4-yl)oxy)methyl)cyclo-hexyl)acetamide]
> 7.30 | CN[C@H]1CC[C@@H](COc2nc(Nc3cnn(C4CC(C#N)C4)c3C)ncc2Cl)C1 (stereo partly drawn) [Example 52, 3-(4-((5-chloro-4-(((1R,3S)-3-(methylamino)cyclo-pentyl)methoxy)py-rimidin-2-yl)amino)-5-methyl-1H-pyrazol-1-yl)cyclobutane-1-carbonitrile]
> 7.30 | CC(=O)N[C@H]1CC[C@H](COc2nc(Nc3cnn(C4CCOCC4)c3)ncc2F)CC1 [Example 193, N-((1R,4R)-4-(((5-fluoro-2-((1-(tetrahydro-2H-pyran-4-yl)-1H-pyrazol-4-yl)amino)pyrimidin-4-yl)oxy)methyl)cyclo-hexyl)acetamide]
6.70 to 7.30 | C[C@@H]1CN(c2ccc(Nc3nccc(OCC4CCC(CO)CC4)n3)cc2)C[C@H](C)O1 (stereo partly drawn) [Example 141, (4-(((2-((4-((2R,6S)-2,6-dimethylmorpholino)phenyl)amino)pyrimidin-4-yl)oxy)methyl)cyclohexyl)methanol]
6.70 to 7.30 | Cc1nn(C(C)(C)C#N)cc1Nc1ncc(F)c(OCC2CCNCC2)n1 [Example 18, 2-(4-((5-fluoro-4-(piperidin-4-ylmethoxy)pyrimidin-2-yl)amino)-3-methyl-1H-pyrazol-1-yl)-2-methylpropanenitrile]
< 6.40 | CC(=O)NC1CCC(C)(COc2ccnc(Nc3ccc(N4C[C@@H](C)O[C@@H](C)C4)cc3)n2)CC1 (stereo partly drawn) [Example 90, N-(4-(((2-((4-((2S,6R)-2,6-dimethylmorpholino)phenyl)amino)py-rimidin-4-yl)oxy)methyl)-4-methylcyclohexyl) acetamide]
6.70 to 7.30 | NC1CCCC(COc2ccnc(Nc3ccc(N4CCOCC4)cc3)n2)C1 (stereo not shown) [Example 11, 4-((3-aminocyclohexyl)methoxy)-N-(4-morpholinophenyl) pyrimidin-2-amine]
> 7.30 | CN[C@H]1CC[C@H](COc2nc(Nc3cc(F)c(C(=O)N4CCOCC4)cc3OC)ncc2OC)CC1 [Example 36]
> 7.30 | O=C(C(F)F)N1CCC(COc2nc(Nc3ccc(N4CCOCC4)cc3)ncc2Cl)CC1 [Example 109, 1-(4-(((5-chloro-2-((4-morpholino-phenyl)amino)pyrimidin-4-yl)oxy)methyl)piperidin-1-yl)-2,2-difluoro-ethan-1-one]
> 7.30 | Fc1cnc(Nc2ccc(N3CCOCC3)cc2)nc1OCC1CCNCC1F (stereo not shown) [Example 166, 5-fluoro-4-((3-fluoropiperidin-4-yl)methoxy)-N-(4-morpholinophenyl) pyrimidin-2-amine]
> 7.30 | Cc1nn(C(C)(C)C#N)cc1Nc1ncc(F)c(OC[C@@H]2CCC[C@@H](O)C2)n1 [Example 250, 2-(4-((5-fluoro-4-(((1R,3R)-3-hydroxycyclohexyl)methoxy)pyrimidin-2-yl)amino)-3-methyl-1H-pyrazol-1-yl)-2-methylpropanenitrile]
> 7.30 | Cc1nn(C(C)(C)C#N)cc1Nc1ncc(F)c(OCC2CCC(O)C2)n1 (stereo not shown) [Example 127, 2-(4-((5-fluoro-4-((3-hydroxycyclopentyl)methoxy)pyrimidin-2-yl)amino)-3-methyl-1H-pyrazol-1-yl)-2-methylpropanenitrile]
> 7.30 | Cc1nn(C2CC(C#N)C2)cc1Nc1ncc(Cl)c(OCC2CC3(COC3)C2)n1 (stereo not shown) [Example 151, 3-(4-((4-((2-oxaspiro[3.3]heptan-6-yl)methoxy)-5-chloropyrimidin-2-yl)amino)-3-methyl-1H-pyrazol-1-yl)cyclobutane-1-carbonitrile]
< 6.40 | Cc1nn(C(C)(C)C#N)cc1Nc1ncc(F)c(OCC2CCN(C)CC2)n1 [Example 67, 2-(4-((5-fluoro-4-((1-methylpiperidin-4-yl)methoxy)pyrimidin-2-yl)amino)-3-methyl-1H-pyrazol-1-yl)-2-methylpropanenitrile]
> 7.30 | CC(=O)N1CCC(COc2nc(Nc3ccc(N4CCOCC4)cc3)ncc2Cl)C(F)(F)C1 (stereo not shown) [Example 95, 1-(4-(((5-chloro-2-((4-morpholinophenyl)amino)pyrimidin-4-yl)oxy)methyl)-3,3-difluoropiperidin-1-yl)ethan-1-one]
> 7.30 | CN[C@H]1CC[C@H](COc2nc(Nc3cn(C(C)(C)C#N)nc3C)ncc2Cl)CC1 [Example 39, 2-(4-((5-chloro-4-(((1R,4R)-4-(methylamino)cyclo-hexyl)methoxy)py-rimidin-2-yl)amino)-3-methyl-1H-pyrazol-1-yl)-2-methylpropanenitrile]
> 7.30 | CC(=O)N[C@H]1CC[C@H](COc2nc(Nc3cnn(CCO)c3Cl)ncc2F)CC1 [Example 204, N-((1R,4R)-4-(((2-((5-chloro-1-(2-hydroxyethyl)-1H-pyrazol-4-yl)amino)-5-fluoropyrimidin-4-yl)oxy)methyl)cyclo-hexyl)acetamide]
> 7.30 | CC(=O)N[C@H]1CC[C@H](COc2nc(Nc3cnn(C(C)C)c3)ncc2F)CC1 [Example 185, N-((1R,4R)-4-(((5-fluoro-2-((1-isopropyl-1H-pyrazol-4-yl)amino)pyrimidin-4-yl)oxy)methyl)cyclo-hexyl)acetamide]
> 7.30 | C[C@@H]1CN(c2ccc(Nc3ncc(Cl)c(OCC4CCC(O)CC4)n3)cc2)C[C@H](C)O1 (stereo partly drawn) [Example 120, 4-(((5-chloro-2-((4-((2S,6R)-2,6-dimethylmorpholino)phenyl)amino)pyrimidin-4-yl)oxy)methyl)cyclohexan-1-ol]
> 7.30 | Cc1nn(C(C)(C)C#N)cc1Nc1ncc(Cl)c(OCC2(F)CCNCC2)n1 [Example 20, 2-(4-((5-chloro-4-((4-fluoropiperidin-4-yl)methoxy)pyrimidin-2-yl)amino)-3-methyl-1H-pyrazol-1-yl)-2-methylpropanenitrile]
6.70 to 7.30 | CC(=O)N[C@H]1CC[C@H](COc2ccnc(Nc3cn(C(C)(C)C#N)nc3C)n2)CC1 [Example 74, N-((1R,4R)-4-(((2-((1-(2-cyanopropan-2-yl)-3-methyl-1H-pyrazol-4-yl)amino)pyrimidin-4-yl)oxy)methyl)cyclo-hexyl)acetamide]
6.70 to 7.30 | CC(=O)N[C@H]1CC[C@@H](COc2nc(Nc3ccc(N4CCOCC4)cc3)ncc2F)C1 [Example 178, N-((1S,3R)-3-(((5-fluoro-2-((4-morpholinophenyl)amino)pyrimidin-4-yl)oxy)methyl)cyclo-pentyl)acetamide]
6.40 to 6.70 | Cc1nn(C2CC(C#N)C2)cc1Nc1ncc(Cl)c(OCC2(F)CCN(C)CC2)n1 (stereo not shown) [Example 62, 3-(4-((5-chloro-4-((4-fluoro-1-methylpiperidin-4-yl)methoxy)pyrimidin-2-yl)amino)-3-methyl-1H-pyrazol-1-yl)cyclobutane-1-carbonitrile]
6.70 to 7.30 | C[C@@H]1CN(c2ccc(Nc3nccc(OCC4CCC(O)CC4)n3)cc2)C[C@H](C)O1 (stereo partly drawn) [Example 118, 4-(((2-((4-((2S,6R)-2,6-dimethylmorpholino)phenyl)amino)pyrimidin-4-yl)oxy)methyl)cyclohexan-1-ol]
> 7.30 | Clc1cnc(Nc2ccc(N3CCOCC3)cc2)nc1OCC1CCOCC1 [Example 148, 5-chloro-N-(4-morpholinophenyl)-4-((tetrahydro-2H-pyran-4-yl)methoxy)pyrimidin-2-amine]
< 6.40 | N[C@H]1CC[C@H](COc2nc(Nc3ccc(N4CCOCC4)cc3)ncc2C(F)(F)F)CC1 [Example 7, 4-(((1R,4R)-4-aminocyclohexyl)methoxy)-N-(4-morpholinophenyl)-5-(trifluoromethyl) pyrimidin-2-amine]
6.40 to 6.70 | OC1CCC(COc2ccnc(Nc3ccc(N4CCOCC4)cc3)n2)CC1 (stereo not shown) [Example 117, 4-(((2-((4-morpholinophenyl)amino)pyrimidin-4-yl)oxy)methyl)cyclohexanol]
6.40 to 6.70 | COc1nn(C)cc1Nc1ncc(F)c(OC[C@H]2CC[C@H](O)CC2)n1 [Example 243, (1R,4R)-4-(((5-fluoro-2-((3-methoxy-1-methyl-1H-pyrazol-4-yl)amino)pyrimidin-4-yl)oxy)methyl)cyclohexan-1-ol]
> 7.30 | CCc1nn(C)cc1Nc1ncc(F)c(OC[C@H]2CC[C@H](O)CC2)n1 [Example 233, (1R,4R)-4-(((2-((3-ethyl-1-methyl-1H-pyrazol-4-yl)amino)-5-fluoropyrimidin-4-yl)oxy)methyl)cyclohexan-1-ol]
6.70 to 7.30 | CNC[C@H]1CC[C@H](COc2ccnc(Nc3ccc(N4CCOCC4)cc3)n2)CC1 [Example 48, 4-(((1R,4R)-4-((methylamino)methyl)cyclohexyl)methoxy)-N-(4-morpholinophenyl)py-rimidin-2-amine]

SMILES | pIC50
O=C(N[C@H]1CC[C@H](COc2nc(Nc3ccc(N4C5CCC4COC5)cc3)ncc2F)CC1)C(F)(F)F [Example 209, N-((1R,4R)-4-(((2-((4-(3-oxa-8-aza-bicyclo[3.2.1]octan-8-yl)phenyl)amino)-5-fluoro-pyrimidin-4-yl)oxy)methyl)cyclohexyl)-2,2,2-trifluoro-acetamide] | > 7.30
